Numbers after ± are expanded uncertainties.
Conditions: for viscosity / speed of sound / mass density: 102 kPa, Liquid; for viscosity: Concentric cylinders viscometry; for speed of sound: Single path-length method; for mass density: Vibrating tube method; for surface tension liquid-gas: Pendant drop shape

| SMILES | viscosity (293.15 K) | speed of sound (293.15 K) | mass density (293.15 K) | viscosity (298.15 K) | mass density (298.15 K) | viscosity (303.15 K) | speed of sound (303.15 K) | mass density (303.15 K) | viscosity (313.15 K) | speed of sound (313.15 K) | mass density (313.15 K) | viscosity (323.15 K) | speed of sound (323.15 K) | mass density (323.15 K) | viscosity (333.15 K) | speed of sound (333.15 K) | mass density (333.15 K) | speed of sound (298.15 K) | other results |
| --- | --- | --- | --- | --- | --- | --- | --- | --- | --- | --- | --- | --- | --- | --- | --- | --- | --- | --- | --- |
| CCCCCCCCCCCC [dodecane] | 1.49 ± 0.01 mPa·s | 1297.7 ± 0.7 m/s | 748.73 ± 0.7 kg/m3 | 1.36 ± 0.01 mPa·s | 745.11 ± 0.7 kg/m3 | 1.26 ± 0.01 mPa·s | 1259 ± 0.7 m/s | 741.77 ± 0.7 kg/m3 | 1.06 ± 0.01 mPa·s | 1221.1 ± 0.7 m/s | 734.87 ± 0.7 kg/m3 | 0.925 ± 0.012 mPa·s | 1183.9 ± 0.7 m/s | 726.88 ± 0.7 kg/m3 | 0.795 ± 0.012 mPa·s | 1147.6 ± 0.7 m/s | 719.53 ± 0.7 kg/m3 | – | surface tension liquid-gas (294.6 K): 25 ± 0.5 mN/m |
| CCC1CCCCC1 [ethylcyclohexane] | 0.858 ± 0.012 mPa·s | 1292.9 ± 0.6 m/s | 787.98 ± 0.2 kg/m3 | – | – | 0.725 ± 0.011 mPa·s | 1249.9 ± 0.6 m/s | 779.91 ± 0.2 kg/m3 | 0.649 ± 0.011 mPa·s | 1208 ± 0.6 m/s | 771.79 ± 0.2 kg/m3 | 0.572 ± 0.011 mPa·s | 1166.9 ± 0.6 m/s | 763.6 ± 0.21 kg/m3 | 0.504 ± 0.011 mPa·s | 1126.9 ± 0.6 m/s | 755.36 ± 0.21 kg/m3 | – | surface tension liquid-gas (295.6 K): 25.3 ± 0.5 mN/m |
| CCCCCCCCCCCCCCCC [hexadecane] | 3.47 ± 0.02 mPa·s | 1357.4 ± 0.6 m/s | 773.37 ± 0.32 kg/m3 | 3.06 ± 0.02 mPa·s | 769.89 ± 0.32 kg/m3 | 2.76 ± 0.02 mPa·s | 1319.7 ± 0.6 m/s | 766.43 ± 0.32 kg/m3 | 2.23 ± 0.02 mPa·s | 1282.9 ± 0.6 m/s | 759.51 ± 0.32 kg/m3 | 1.86 ± 0.01 mPa·s | 1247.1 ± 0.6 m/s | 752.6 ± 0.32 kg/m3 | 1.56 ± 0.01 mPa·s | 1212.2 ± 0.6 m/s | 745.69 ± 0.32 kg/m3 | 1338.6 ± 0.6 m/s | surface tension liquid-gas (296.1 K): 26.9 ± 0.7 mN/m |
| CC1CCCCC1 [methylcyclohexane] | 0.74 ± 0.011 mPa·s | 1236.5 ± 0.6 m/s | 769.3 ± 0.2 kg/m3 | 0.685 ± 0.011 mPa·s | 764.99 ± 0.21 kg/m3 | 0.633 ± 0.011 mPa·s | 1192.3 ± 0.6 m/s | 760.64 ± 0.21 kg/m3 | 0.572 ± 0.011 mPa·s | 1149.2 ± 0.6 m/s | 751.92 ± 0.21 kg/m3 | 0.489 ± 0.011 mPa·s | 1106.9 ± 0.6 m/s | 743.13 ± 0.21 kg/m3 | 0.44 ± 0.011 mPa·s | 1065.7 ± 0.6 m/s | 734.25 ± 0.21 kg/m3 | 1214.5 ± 0.6 m/s | surface tension liquid-gas (291.1 K): 23.7 ± 0.5 mN/m |
